Laboratory results reported in patent publication US20060099643A1, “Method for determining the regulation of xenobiotic removal” (priority 2002, published 2006).

Experiments:
SXR [1] = target: T1, SXR (Homo sapiens, UniProt O75469); assay: Microplate thermal shift assay (Thermofluor) of SXR with ligands, co-activator peptide SRC1-NR2 and co-repressor peptide NCoR-1; settings: for ΔΔTm SRC1-NR2: co-activator peptide SRC1-NR2 100 μM; for ΔTm ligand: average of four experiments; for ΔTm at 100 µM: read-out: ΔΔTm NcoR1-NR2; for Probability Agonist (statistical probability of agonist state): computed from affinities derived from ΔΔTm with co-regulator peptides (FIG. 3)
T1 sequence (O75469 1-434): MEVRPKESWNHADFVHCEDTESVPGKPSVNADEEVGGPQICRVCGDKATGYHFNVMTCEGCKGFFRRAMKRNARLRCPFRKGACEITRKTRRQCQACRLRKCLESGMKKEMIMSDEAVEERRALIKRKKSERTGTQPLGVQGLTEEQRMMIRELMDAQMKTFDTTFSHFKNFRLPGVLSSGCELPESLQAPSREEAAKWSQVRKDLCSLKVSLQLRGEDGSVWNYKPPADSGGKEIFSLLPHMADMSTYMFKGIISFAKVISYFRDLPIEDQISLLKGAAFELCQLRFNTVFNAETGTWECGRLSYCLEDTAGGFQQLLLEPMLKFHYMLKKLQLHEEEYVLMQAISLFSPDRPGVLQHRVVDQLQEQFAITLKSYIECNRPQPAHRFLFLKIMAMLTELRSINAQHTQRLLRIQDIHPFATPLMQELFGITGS
Method: A 2 μL ligand solution at 2 times the final concentration was dispensed with a micropipette into a 384 well black wall Greiner plate. Then, 2 μL of the protein dye solution was dispensed on top of the ligand solution in the 384 well plate. The plates were spun to ensure mixing of the protein-dye and ligand solutions followed by layering of 1 μL of silicone oil to prevent evaporation during heating of the samples. […] The values for the co-regulators represent a change in Tm stabilization from the receptor-ligand ΔTm values.

ER-α = target: T2, ER-α (Homo sapiens, UniProt P03372); assay: Microplate thermal shift assay (Thermofluor) of ER-α with ligands and co-regulators; assay type: binding; settings: ER-α 8 μM, ligand 20 μM; average of four experiments; head shifted, see doubts
T2 sequence (P03372 1-595): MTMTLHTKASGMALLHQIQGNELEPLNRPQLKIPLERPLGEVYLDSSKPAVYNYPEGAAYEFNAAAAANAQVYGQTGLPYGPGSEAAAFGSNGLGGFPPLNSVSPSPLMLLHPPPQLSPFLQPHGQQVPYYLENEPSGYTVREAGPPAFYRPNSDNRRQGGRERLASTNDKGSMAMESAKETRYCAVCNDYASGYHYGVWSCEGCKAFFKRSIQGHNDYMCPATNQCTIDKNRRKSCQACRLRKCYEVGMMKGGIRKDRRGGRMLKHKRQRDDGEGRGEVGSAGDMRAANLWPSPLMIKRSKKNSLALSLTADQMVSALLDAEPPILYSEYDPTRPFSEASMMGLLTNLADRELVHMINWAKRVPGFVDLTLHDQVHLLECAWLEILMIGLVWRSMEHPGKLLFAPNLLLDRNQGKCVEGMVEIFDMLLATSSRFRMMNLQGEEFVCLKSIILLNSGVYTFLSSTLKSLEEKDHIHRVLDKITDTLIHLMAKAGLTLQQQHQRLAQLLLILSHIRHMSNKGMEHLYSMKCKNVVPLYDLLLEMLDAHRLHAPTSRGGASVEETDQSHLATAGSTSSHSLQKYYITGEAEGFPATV
Method: (§1) A 2 μM ligand solution at 2 times the final concentration was dispensed with a micropipette into a 384 well black wall Greiner plate. Then, 2 μL of the protein dye solution was dispensed on top of the ligand solution in the 384 well plate. The plates were spun to ensure mixing of the protein-dye and ligand solutions followed by layering of 1 μL of silicone oil to prevent evaporation during heating of the samples.

ER-β = ER-β (Homo sapiens, UniProt Q92731); assay: Microplate thermal shift assay (Thermofluor) of ER-β with ligands and co-regulators; assay type: binding; settings: ER-β 8 μM, ligand 20 μM; for Observed ΔTm Stabilization, SRC3-NR2: co-activator peptide SRC3-NR2 100 μM; for Observed ΔTm Stabilization, NR2: change in Tm stabilization from the receptor-ligand ΔTm
Sequence of ER-β (Q92731 whole entry, species assumed): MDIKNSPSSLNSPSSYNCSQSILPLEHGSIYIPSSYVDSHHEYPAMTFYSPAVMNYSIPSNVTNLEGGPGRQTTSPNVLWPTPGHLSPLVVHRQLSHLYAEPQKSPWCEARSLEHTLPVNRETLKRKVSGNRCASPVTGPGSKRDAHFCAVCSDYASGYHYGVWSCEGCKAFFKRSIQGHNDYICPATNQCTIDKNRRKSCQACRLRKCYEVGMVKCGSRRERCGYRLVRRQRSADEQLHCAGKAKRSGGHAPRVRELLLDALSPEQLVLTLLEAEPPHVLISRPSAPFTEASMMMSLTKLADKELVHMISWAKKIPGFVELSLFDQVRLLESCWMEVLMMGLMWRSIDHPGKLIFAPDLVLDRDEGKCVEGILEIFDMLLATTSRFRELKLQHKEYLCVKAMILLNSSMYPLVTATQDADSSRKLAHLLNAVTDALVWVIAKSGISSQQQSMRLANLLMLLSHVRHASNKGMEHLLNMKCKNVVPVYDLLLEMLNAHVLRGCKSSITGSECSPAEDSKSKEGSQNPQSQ
Method: as §1

SXR [2] = target: T1, SXR; settings: from Ekins & Erickson, Drug Metabolism and Disposition, 30, 96-99 and references therein; cited from earlier work
[3] = SXR 6 μM, ligand 50 μM, change from the receptor-ligand ΔTm
[4] = change from the receptor-ligand ΔTm

Row | SMILES | ΔΔTm SRC1-NR2 (SXR [1]; [3]) | ΔTm ligand (SXR [1]; SXR 6 μM, ligand 50 μM) [°C] | ΔTm at 100 µM (SXR [1]) [°C] | Observed ΔTm Stabilization, SRC-3 (ER-α) | Observed ΔTm Stabilization, SRC3-NR2 (ER-β; [4]) | Observed ΔTm Stabilization, NCoR1-NR1 (ER-β; co-repressor peptide NCoR-1 100 μM, change from the receptor-ligand ΔTm) | Observed ΔTm Stabilization, SRC-3 (ER-β; average of four experiments, head shifted, see doubts) | Observed ΔTm Stabilization, NR2 (ER-β; head shifted, see doubts) | ΔΔTm NcoR1-NR2 (SXR [1]; SXR 6 μM, ligand 50 μM, co-repressor peptide NCoR-1 100 μM, change from the receptor-ligand ΔTm) | Probability Agonist (statistical probability of agonist state) (SXR [1]) | Kd (SXR [1]) [µM] | EC50 (SXR [2]) [µM]
1 | C[C@H](CCC(=O)O)[C@H]1CC[C@H]2[C@@H]3CC[C@@H]4C[C@H](O)CC[C@]4(C)[C@H]3CC[C@]12C [Lithocholic acid] | 2.9 | 2.4 | 1.4 | – | – | – | – | – | – | – | – | –
2 | COc1cc2c(cc1O)CC[C@@H]1[C@@H]2CC[C@]2(C)[C@@H](O)CC[C@@H]12 [Ligand 2-methoxy-E2, 2-methoxy-E2] | – | – | – | 3.5 | 4.4 | −0.7 | 2.9 | 4.4 | – | – | – | –
3 | CC(=O)[C@H]1CC[C@H]2[C@@H]3CCC4=CC(=O)CC[C@]4(C)[C@H]3[C@H](O)C[C@]12C [11-α-hydroxy-progesterone] | 4.6 | 6.3 | – | – | – | – | – | – | 1.0 | 0.96 | – | –
4 | C[C@]12CC[C@@H](O)C[C@@H]1CC[C@@H]1[C@@H]2CC[C@]2(C)C(=O)CC[C@@H]12 [Androsterone] | 3.5 | 3.3 | 3.8 | – | – | – | – | – | – | 0.45 | – | –
5 | CC(=O)O[C@H]1C(=O)[C@@]2(C)[C@H]([C@H](OC(=O)c3ccccc3)[C@]3(O)C[C@H](OC(=O)[C@H](O)[C@@H](NC(=O)c4ccccc4)c4ccccc4)C(C)=C1C3(C)C)[C@]1(OC(C)=O)CO[C@@H]1C[C@@H]2O [Taxol] | 2.5 | 1.3 | 4.7 | – | – | – | – | – | – | – | 23 | 5
6 | C[C@]12CC[C@@H]3c4ccc(O)cc4CC[C@H]3[C@@H]1CC[C@@H]2O [Estradiol] | 3.9 | – | 2.3 | – | 3.5 | – | – | 3.4 | – | 0.76 | 8.7 | –
